pEC50: −log10 of the molar value.
Target: T1, LXRβ (Homo sapiens, UniProt P55055)
T1 construct: Co-transfection expression plasmids, comprising full-length LXRα (pCMX-h LXRα[…] or LXRβ (pCMX-hLXRβ)); expressed in transfected cells; host or cells: CV-1 African Green Monkey Kidney Cells
T1 sequence (P55055 1-460): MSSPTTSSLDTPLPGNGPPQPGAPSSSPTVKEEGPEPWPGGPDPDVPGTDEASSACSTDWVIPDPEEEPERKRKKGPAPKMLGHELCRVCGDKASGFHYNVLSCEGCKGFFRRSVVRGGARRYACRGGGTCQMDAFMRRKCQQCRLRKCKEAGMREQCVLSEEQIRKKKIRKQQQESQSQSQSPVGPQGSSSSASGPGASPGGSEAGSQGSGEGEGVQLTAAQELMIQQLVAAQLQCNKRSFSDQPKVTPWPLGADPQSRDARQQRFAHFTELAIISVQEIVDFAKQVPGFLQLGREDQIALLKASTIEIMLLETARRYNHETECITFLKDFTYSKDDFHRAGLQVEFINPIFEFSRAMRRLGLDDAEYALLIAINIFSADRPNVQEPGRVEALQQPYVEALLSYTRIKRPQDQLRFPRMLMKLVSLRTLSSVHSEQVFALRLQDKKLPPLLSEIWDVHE
T1 sequence (P19793 1-462 partner): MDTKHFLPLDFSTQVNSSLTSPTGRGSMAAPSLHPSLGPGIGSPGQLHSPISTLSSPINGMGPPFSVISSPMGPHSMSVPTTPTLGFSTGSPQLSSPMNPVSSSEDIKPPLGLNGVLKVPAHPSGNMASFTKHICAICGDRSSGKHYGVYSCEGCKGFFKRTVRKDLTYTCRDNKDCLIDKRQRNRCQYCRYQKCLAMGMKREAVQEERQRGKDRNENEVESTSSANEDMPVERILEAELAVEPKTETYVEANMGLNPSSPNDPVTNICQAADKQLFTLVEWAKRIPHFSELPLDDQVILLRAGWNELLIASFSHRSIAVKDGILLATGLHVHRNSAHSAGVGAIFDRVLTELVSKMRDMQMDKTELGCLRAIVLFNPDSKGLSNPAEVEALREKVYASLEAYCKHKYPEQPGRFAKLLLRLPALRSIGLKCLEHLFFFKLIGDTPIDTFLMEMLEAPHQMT
Assay: Co-transfection assay (LXRE luciferase reporter), LXRβ
Assay type: cell-based
Conditions: for pEC50: CV-1 cells transfected with pCMX-hLXRβ and LXREx1-Tk-Luciferase, 20 hours incubation; for Emax: LXRβ co-transfection, relative to high control 1-(2,4-difluorobenzyl)-2-oxo-6-(4-phenoxyphenyl)-4-(trifluoromethyl)-1,2-dihydropyridine-3-carbonitrile, read-out: % Efficacy
Outline: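 Luciferase output from an LXRE-Tk reporter measured after 20 h, 37 °C compound exposure of transiently transfected CV-1 cells expressing human LXRβ with endogenous RXR. EC50 fitted from 11-point half-log dose responses (mean of ≥2 runs); % efficacy versus maximal response of the reference agonist.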

| SMILES | pEC50 | Emax |
| --- | --- | --- |
| Cc1nc(C(F)(F)F)cn1-c1ccc(-c2cccc(S(C)(=O)=O)c2)cc1-n1nncc1-c1ccc(OC(F)(F)C(F)F)cc1 [Example 23, 1-{3′-(methylsulfonyl)-4-[2-methyl-4-(trifluoromethyl)-1H-imidazol-1-yl]biphenyl-3-yl}-5-{4-[(1,1,2,2-tetrafluoroethyl)oxy]phenyl}-1H-1,2,3-triazole] | 6.29 | 101% |
| CNS(=O)(=O)c1cccc(-c2cc(F)c(-n3cc(C(F)(F)F)nc3C)c(-n3nncc3-c3ccc(OC(F)(F)F)cc3)c2)c1 [Example 205, 3′-fluoro-N-methyl-4′-[2-methyl-4-(trifluoromethyl)-1H-imidazol-1-yl]-5′-(5-{4-[(trifluoromethyl)oxy]phenyl}-1H-1,2,3-triazol-1-yl)biphenyl-3-sulfonamide] | 6.95 | 85% |
| Cc1nc(C(F)(F)F)cn1-c1ccc(-c2cccc(S(C)(=O)=O)c2)cc1-c1cnnn1-c1ccc(OC(F)(F)F)cc1 [Example 242, 5-{3′-(methylsulfonyl)-4-[2-methyl-4-(trifluoromethyl)-1H-imidazol-1-yl]biphenyl-3-yl}-1-{4-[(trifluoromethyl)oxy]phenyl}-1H-1,2,3-triazole] | 6.70 | 105% |
| Cc1nc(C(=O)NC(C)(C)C)cn1-c1ccc(-c2cccc(S(C)(=O)=O)c2)cc1-n1nncc1-c1ccc(OC(F)(F)F)cc1 [Example 152, N-(1,1-dimethylethyl)-2-methyl-1-[3′-(methylsulfonyl)-3-(5-{4-[(trifluoromethyl)oxy]phenyl}-1H-1,2,3-triazol-1-yl)biphenyl-4-yl]-1H-imidazole-4-carboxamide] | 5.91 | 49% |
| Cc1nc(-c2cc(-c3cc(F)c(CO)c(S(C)(=O)=O)c3)ccc2-n2cc(C(F)(F)F)nc2C)c(-c2ccc(Cl)cc2)o1 [Example 374, {3′-[5-(4-chlorophenyl)-2-methyl-1,3-oxazol-4-yl]-3-fluoro-5-(methylsulfonyl)-4′-[2-methyl-4-(trifluoromethyl)-1H-imidazol-1-yl]biphenyl-4-yl}methanol] | 7.30 | 72% |
| COc1ccc(-c2cnnn2-c2cc(-c3cccc(S(C)(=O)=O)c3)ccc2-n2cc(C(F)F)nc2C)cc1 [Example 166, 1-{4-[4-(difluoromethyl)-2-methyl-1H-imidazol-1-yl]-3′-(methylsulfonyl)biphenyl-3-yl}-5-[4-(methyloxy)phenyl]-1H-1,2,3-triazole] | 5.78 | 78% |
| Cc1nc(C(F)(F)F)cn1-c1ccc(-c2cccc(S(C)(=O)=O)c2)cc1-n1nncc1Cc1ccc(Cl)cc1 [Example 125, 5-[(4-chlorophenyl)methyl]-1-{3′-(methylsulfonyl)-4-[2-methyl-4-(trifluoromethyl)-1H-imidazol-1-yl]biphenyl-3-yl}-1H-1,2,3-triazole] | 6.45 | 83% |
| Cc1nc(C(F)F)cn1-c1ccc(-c2cccc(S(=O)(=O)N(C)C)c2)cc1-n1nncc1C(C)c1ccc(Cl)cc1 (stereo not shown) [Example 132, 3′-{5-[1-(4-chlorophenyl)ethyl]-1H-1,2,3-triazol-1-yl}-4′-[4-(difluoromethyl)-2-methyl-1H-imidazol-1-yl]-N,N-dimethylbiphenyl-3-sulfonamide] | 6.37 | 61% |
| Cc1nc(C(F)(F)F)cn1-c1ccc(-c2cc(F)c(CO)c(S(C)(=O)=O)c2)cc1-n1nncc1Cc1ccc(Cl)cc1 [Example 113] | 6.28 | 72% |

More lines, now with the values ahead:

| pEC50 | Emax | SMILES |
| --- | --- | --- |
| 8.00 | 82% | CCCc1nc(-c2cc(-c3ccc(CO)c(S(C)(=O)=O)c3)ccc2-n2cc(C(F)(F)F)nc2C)c(-c2ccc(OC(F)(F)F)cc2)o1 [Example 558, (4′-(2-methyl-4-(trifluoromethyl)-1H-imidazol-1-yl)-3-(methylsulfonyl)-3′-(2-propyl-5-(4-(trifluoromethoxy)phenyl)oxazol-4-yl)-[1,1′-biphenyl]-4-yl)methanol] |
| 7.47 | 64% | Cc1ccc(-c2oc(C)nc2-c2cc(-c3cc(F)c(CO)c(S(C)(=O)=O)c3)ccc2-n2cc(C(F)(F)F)nc2C)cc1 [Example 492, (3-fluoro-4′-(2-methyl-4-(trifluoromethyl)-1H-imidazol-1-yl)-3′-(2-methyl-5-p-tolyloxazol-4-yl)-5-(methylsulfonyl)biphenyl-4-yl)methanol] |
| 7.77 | 66% | Cc1nc(-c2cc(-c3cc(F)c(CO)c(S(C)(=O)=O)c3)ccc2-n2cc(C(F)(F)F)nc2C)c(-c2ccc(Cl)cc2Cl)o1 [Example 488, (3′-(5-(2,4-dichlorophenyl)-2-methyloxazol-4-yl)-3-fluoro-4′-(2-methyl-4-(trifluoromethyl)-1H-imidazol-1-yl)-5-(methylsulfonyl)biphenyl-4-yl)methanol] |
| 6.70 | 84% | Cc1nc(-c2cc(-c3cccc(S(C)(=O)=O)c3)ccc2-n2cc(Cl)nc2C)c(-c2ccc(OC(F)F)c(F)c2)o1 [Example 466, 4-(4-(4-chloro-2-methyl-1H-imidazol-1-yl)-3′-(methylsulfonyl)biphenyl-3-yl)-5-(4-(difluoromethoxy)-3-fluorophenyl)-2-methyloxazole] |
| 6.45 | 85% | Cc1nc(-c2cc(-c3cccc(S(C)(=O)=O)c3)ccc2-n2cc(C(F)(F)F)nc2C)c(-c2ccc(Cl)cn2)o1 [Example 431, 5-(5-chloropyridin-2-yl)-2-methyl-4-(4-(2-methyl-4-(trifluoromethyl)-1H-imidazol-1-yl)-3′-(methylsulfonyl)biphenyl-3-yl)oxazole] |
| 6.69 | 80% | Cc1nc(-c2ccc3c(c2)OC(F)(F)O3)c(-c2cc(-c3cc(Cl)c(CO)c(S(C)(=O)=O)c3)ccc2-n2cc(C(F)(F)F)nc2C)o1 [Example 623, (3-chloro-3′-(4-(2,2-difluorobenzo[d][1,3]dioxol-5-yl)-2-methyloxazol-5-yl)-4′-(2-methyl-4-(trifluoromethyl)-1H-imidazol-1-yl)-5-(methylsulfonyl)-[1,1′-biphenyl]-4-yl)methanol] |
| 7.09 | 89% | Cc1nc(-c2cc(-c3cccc(C(C)(C)C(N)=O)c3)ccc2-n2cc(C(F)(F)F)nc2C)c(-c2ccc(OC(F)F)cc2)o1 [Example 542, 2-(3′-(5-(4-(difluoromethoxy)phenyl)-2-methyloxazol-4-yl)-4′-(2-methyl-4-(trifluoromethyl)-1H-imidazol-1-yl)-[1,1′-biphenyl]-3-yl)-2-methylpropanamide] |
| 6.96 | 74% | Cc1ccc(-c2oc(C)nc2-c2cc(-c3cccc(S(C)(=O)=O)c3)ccc2-n2cc(C(F)(F)F)nc2C)c(Cl)n1 [Example 422, 5-(2-chloro-6-methylpyridin-3-yl)-2-methyl-4-(4-(2-methyl-4-(trifluoromethyl)-1H-imidazol-1-yl)-3′-(methylsulfonyl)biphenyl-3-yl)oxazole] |
| 6.19 | 67% | Cc1nc(C(F)(F)F)cn1-c1ccc(-c2cc(F)c(CO)c(S(C)(=O)=O)c2)cc1-c1nc(CCO)oc1-c1ccc(OC(F)(F)F)cc1 [Example 525, 2-(4-(3′-fluoro-4′-(hydroxymethyl)-4-(2-methyl-4-(trifluoromethyl)-1H-imidazol-1-yl)-5′-(methylsulfonyl)-[1,1′-biphenyl]-3-yl)-5-(4-(trifluoromethoxy)phenyl)oxazol-2-yl)ethanol] |
| 7.30 | 74% | Cc1nc(-c2cc(-c3cc(F)c(CO)c(S(C)(=O)=O)c3)ccc2-n2cc(C(F)(F)F)nc2C)c(-c2ccc(Cl)c(F)c2)o1 [Example 499, (3′-(5-(4-chloro-3-fluorophenyl)-2-methyloxazol-4-yl)-3-fluoro-4′-(2-methyl-4-(trifluoromethyl)-1H-imidazol-1-yl)-5-(methylsulfonyl)biphenyl-4-yl)methanol] |
| 6.34 | 65% | Cc1nc(-c2cc(-c3cccc(S(C)(=O)=O)c3)ccc2-n2cc(C(F)(F)F)nc2C)c(-c2cc(Cl)ccn2)o1 [Example 434, 5-(4-chloropyridin-2-yl)-2-methyl-4-(4-(2-methyl-4-(trifluoromethyl)-1H-imidazol-1-yl)-3′-(methylsulfonyl)biphenyl-3-yl)oxazole] |
